In experiment [1] the test system is Dengue 3 virus MY05-34640-WT-C6/36. The experiment in a line: High-content imaging cell-based flavivirus immunodetection (HCl-CFI) assay, Dengue 3. To be noted: Dengue virus, A549, 48 h, read-out: Dengue 3 virus MY05-34640-WT-C6/36 in A549 using HCl [Inhibitor/IC50] Qualified AC50.
Experiment [2] relates to Dengue 2 virus MY97-10340. The experiment in a line: High-content imaging cell-based flavivirus immunodetection (HCl-CFI) assay, Dengue 2. To be noted: Dengue virus, A549, 48 h, read-out: Dengue 2 virus MY97-10340 in A549 using HCl [Inhibitor/IC50] Qualified AC50, A549 cells, MOI 0.3, 48 h, viral E protein expression. On the procedure: High-Content Imaging Cell-Based Flavivirus Immunodetection (HCl-CFI) Assay
A549 cells (7×10^3 cells per well) in a 384-well plate were infected with the DENV-2 (MY97-10340) strain at an MOI of 0.3. The cells were then treated with 3-fold, 10-point serial dilutions of test compound. After 48 h, the cells were fixed with paraformadehyde, and the viral E protein detected with 4G2 antibody labeled with Dylight™ 488 (GenScript). Cell nuclei were stained with Draq5 (Pierce/Thermo), and images were taken on the Opera imaging system (Perkin Elmer). A dose-response curve was plotted to calculate the effective concentration of compound needed to reduce expression of E protein by 50% (EC50) using GraphPad Prism.
The resulted EC50 values are summarized in Table 1 below: ±≥1 μM; 1 μM>++≥0.1 μM; 0.1 μm>+++

Experiment [3] concerns Dengue 1 virus MY97-10245. The experiment is described as follows: High-content imaging cell-based flavivirus immunodetection (HCl-CFI) assay, Dengue 1. To be noted: Dengue virus, A549, 48 h, read-out: Dengue 1 virus MY97-10245 in A549 using HCl [Inhibitor/IC50] Qualified AC50.
In experiment [4] the test system is Dengue 4 virus MY01-22713. The experiment in a line: High-content imaging cell-based flavivirus immunodetection (HCl-CFI) assay, Dengue 4. To be noted: Dengue virus, A549, 48 h, read-out: Dengue 4 virus MY01-22713 in A549 using HCl [Inhibitor/IC50] Qualified AC50, A549 cells, 48 h, viral E protein expression.

On to `CC(O)(c1ccc(CC(=O)Nc2sc3c(c2C#N)CN(CC2CCCCC2)CC3)cc1)C(F)(F)F` (centres unmarked) [Example 8, N-(3-cyano-5-(cyclohexylmethyl)-4,5,6,7-tetrahydrothieno[3,2-c]pyridin-2-yl)-2-(4-(1,1,1-trifluoro-2-hydroxypropan-2-yl)phenyl)acetamide], for which the EC50 in experiment [1] was 0.1 to 1 µM; in experiment [2] it was 0.1 to 1 µM; in experiment [3], over 1 µM; in experiment [4], 0.1 to 1 µM.
Turning to `N#Cc1c(NC(=O)Cc2ccc(S(N)(=O)=O)c(F)c2)sc2c1CN(CC1CCCCC1)CC2` [Example 9, N-(3-cyano-5-(cyclohexylmethyl)-4,5,6,7-tetrahydrothieno[3,2-c]pyridin-2-yl)-2-(3-fluoro-4-sulfamoylphenyl)acetamide], the EC50 in experiment [1] was under 0.1 µM; in experiment [2], under 0.1 µM; in experiment [3] it was 0.1 to 1 µM; in experiment [4], under 0.1 µM.
For `COc1cc(CC(=O)Nc2sc3c(c2C#N)CN(CC2CCCCC2)CC3)ccc1S(C)(=O)=O` [Example 10, N-(3-cyano-5-(cyclohexylmethyl)-4,5,6,7-tetrahydrothieno[3,2-c]pyridin-2-yl)-2-(3-methoxy-4-(methylsulfonyl)phenyl)acetamide], the EC50 in experiment [1] is under 0.1 µM; in experiment [2] it was under 0.1 µM; in experiment [3], 0.1 to 1 µM; in experiment [4] it was under 0.1 µM.
With `N#Cc1c(NC(=O)Cc2ccc(S(=O)(=O)C(F)F)cc2)sc2c1CN(CC1CCCCC1)CC2` [Example 11, N-(3-cyano-5-(cyclohexylmethyl)-4,5,6,7-tetrahydrothieno[3,2-c]pyridin-2-yl)-2-(4-((difluoromethyl)sulfonyl)phenyl)acetamide], the EC50 in experiment [1] is under 0.1 µM; in experiment [2], 0.1 to 1 µM; in experiment [3], under 0.1 µM; in experiment [4] it was under 0.1 µM.
Take `CCOc1cc(CC(=O)Nc2sc3c(c2C#N)CN(CC2CCCCC2)CC3)ccc1S(N)(=O)=O` [Example 12, N-(3-cyano-5-(cyclohexylmethyl)-4,5,6,7-tetrahydrothieno[3,2-c]pyridin-2-yl)-2-(3-ethoxy-4-sulfamoylphenyl)acetamide]: the EC50 in experiment [1], in experiment [2], in experiment [3] and in experiment [4] was under 0.1 µM each time.
For the compound `CS(=O)(=O)Nc1ccc(CC(=O)Nc2sc3c(c2C#N)CN(CC2CCCCC2)CC3)cc1` [Example 13, N-(3-cyano-5-(cyclohexylmethyl)-4,5,6,7-tetrahydrothieno[3,2-c]pyridin-2-yl)-2-(4-(methylsulfonamido)phenyl)acetamide], the EC50 in experiment [1], in experiment [2], in experiment [3] and in experiment [4] was 0.1 to 1 µM throughout.
With `CN(C)S(=O)(=O)c1ccc(CC(=O)Nc2sc3c(c2C#N)CN(CC2CCCCC2)CC3)cc1` [Example 14, N-(3-cyano-5-(cyclohexylmethyl)-4,5,6,7-tetrahydrothieno[3,2-c]pyridin-2-yl)-2-(4-(N,N-dimethylsulfamoyl)phenyl)acetamide], the EC50 in experiment [1], in experiment [2], in experiment [3] and in experiment [4] was 0.1 to 1 µM throughout.
Turning to `COCCOc1cccc(CC(=O)Nc2sc3c(c2C#N)CN(CC2CCCCC2)CC3)c1` [Example 15, N-(3-cyano-5-(cyclohexylmethyl)-4,5,6,7-tetrahydrothieno[3,2-c]pyridin-2-yl)-2-(3-(2-methoxyethoxy)phenyl)acetamide], the EC50 in experiment [1], in experiment [2], in experiment [3] and in experiment [4] was 0.1 to 1 µM in each case.
Take `N#Cc1c(NC(=O)Cc2ccc3c(c2)CNS3(=O)=O)sc2c1CN(CC1CCCCC1)CC2` [Example 16, N-(3-cyano-5-(cyclohexylmethyl)-4,5,6,7-tetrahydrothieno[3,2-c]pyridin-2-yl)-2-(1,1-dioxido-2,3-dihydrobenzo[d]isothiazol-5-yl)acetamide]: the EC50 in experiment [1] was under 0.1 µM; in experiment [2], under 0.1 µM; in experiment [3], 0.1 to 1 µM; in experiment [4], under 0.1 µM.
Turning to `N#Cc1c(NC(=O)Cc2ccc(CS(N)(=O)=O)cc2)sc2c1CN(CC1CCCCC1)CC2` [Example 17, N-(3-cyano-5-(cyclohexylmethyl)-4,5,6,7-tetrahydrothieno[3,2-c]pyridin-2-yl)-2-(4-(sulfamoylmethyl)phenyl)acetamide], the EC50 in experiment [1] is under 0.1 µM; in experiment [2] it was under 0.1 µM; in experiment [3], 0.1 to 1 µM; in experiment [4], under 0.1 µM.
With `N#Cc1c(NC(=O)Cc2ccc3c(c2)CCS3(=O)=O)sc2c1CN(CC1CCCCC1)CC2` [Example 18, N-(3-cyano-5-(cyclohexylmethyl)-4,5,6,7-tetrahydrothieno[3,2-c]pyridin-2-yl)-2-(1,1-dioxido-2,3-dihydrobenzo[b]thiophen-5-yl)acetamide], the EC50 in experiment [1], in experiment [2], in experiment [3] and in experiment [4] was under 0.1 µM throughout.
For `COc1cc(S(N)(=O)=O)ccc1CC(=O)Nc1sc2c(c1C#N)CN(CC1CCCCC1)CC2` [Example 19, N-(3-cyano-5-(cyclohexylmethyl)-4,5,6,7-tetrahydrothieno[3,2-c]pyridin-2-yl)-2-(2-methoxy-4-sulfamoylphenyl)acetamide], the EC50 in experiment [1], in experiment [2], in experiment [3] and in experiment [4] was under 0.1 µM each time.
`N#Cc1c(NC(=O)Cc2ccc3c(c2)CNC3)sc2c1CN(CC1CCCCC1)CC2` [Example 20, N-(3-cyano-5-(cyclohexylmethyl)-4,5,6,7-tetrahydrothieno[3,2-c]pyridin-2-yl)-2-(isoindolin-5-yl)acetamide]: the EC50 is over 1 µM in experiment [1], 0.1 to 1 µM in experiment [2], over 1 µM in experiment [3] and over 1 µM in experiment [4].
For the compound `CCOc1cc(CC(=O)Nc2sc3c(c2C#N)CN(Cc2cccc(F)c2)CC3)ccc1S(N)(=O)=O` [Example 21, N-(3-cyano-5-(3-fluorobenzyl)-4,5,6,7-tetrahydrothieno[3,2-c]pyridin-2-yl)-2-(3-ethoxy-4-sulfamoylphenyl)acetamide], the EC50 in experiment [1], in experiment [2], in experiment [3] and in experiment [4] was under 0.1 µM in each case.
Turning to `COc1cc(CC(=O)Nc2sc3c(c2C#N)CN(Cc2cccc(F)c2)CC3)ccc1S(N)(=O)=O` [Example 22, N-(3-cyano-5-(3-fluorobenzyl)-4,5,6,7-tetrahydrothieno[3,2-c]pyridin-2-yl)-2-(3-methoxy-4-sulfamoylphenyl)acetamide], the EC50 is under 0.1 µM in experiment [1], under 0.1 µM in experiment [2], 0.1 to 1 µM in experiment [3] and under 0.1 µM in experiment [4].
`N#Cc1c(NC(=O)Cc2ccc3c(c2)CNS3(=O)=O)sc2c1CN(Cc1cccc(F)c1)CC2` [Example 23, N-(3-cyano-5-(3-fluorobenzyl)-4,5,6,7-tetrahydrothieno[3,2-c]pyridin-2-yl)-2-(1,1-dioxido-2,3-dihydrobenzo[d]isothiazol-5-yl)acetamide]: the EC50 in experiment [1] is under 0.1 µM; in experiment [2], 0.1 to 1 µM; in experiment [3] it was 0.1 to 1 µM; in experiment [4], 0.1 to 1 µM.
With `COc1cc(S(N)(=O)=O)ccc1CC(=O)Nc1sc2c(c1C#N)CN(Cc1cccc(F)c1)CC2` [Example 24, N-(3-cyano-5-(3-fluorobenzyl)-4,5,6,7-tetrahydrothieno[3,2-c]pyridin-2-yl)-2-(2-methoxy-4-sulfamoylphenyl)acetamide], the EC50 was under 0.1 µM in experiment [1], 0.1 to 1 µM in experiment [2], 0.1 to 1 µM in experiment [3] and 0.1 to 1 µM in experiment [4].
Turning to `N#Cc1c(NC(=O)Cc2ccc3c(c2)S(=O)(=O)NC3)sc2c1CN(Cc1cccc(F)c1)CC2` [Example 25, N-(3-cyano-5-(3-fluorobenzyl)-4,5,6,7-tetrahydrothieno[3,2-c]pyridin-2-yl)-2-(1,1-dioxido-2,3-dihydrobenzo[d]isothiazol-6-yl)acetamide], the EC50 in experiment [1] was under 0.1 µM; in experiment [2], under 0.1 µM; in experiment [3], 0.1 to 1 µM; in experiment [4], under 0.1 µM.
In the case of `N#Cc1c(NC(=O)Cc2ccc3c(c2)CNC3)sc2c1CN(Cc1cccc(F)c1)CC2` [Example 26, N-(3-cyano-5-(3-fluorobenzyl)-4,5,6,7-tetrahydrothieno[3,2-c]pyridin-2-yl)-2-(isoindolin-5-yl)acetamide], the EC50 in experiment [1], in experiment [2], in experiment [3] and in experiment [4] was over 1 µM each time.
Consider `CS(=O)(=O)c1ccc(CC(=O)Nc2sc3c(c2C#N)CN(Cc2cccc(F)c2)CC3)cc1C#N` [Example 27, 2-(3-cyano-4-(methylsulfonyl)phenyl)-N-(3-cyano-5-(3-fluorobenzyl)-4,5,6,7-tetrahydrothieno[3,2-c]pyridin-2-yl)acetamide], for which the EC50 in experiment [1] was under 0.1 µM; in experiment [2] it was under 0.1 µM; in experiment [3], 0.1 to 1 µM; in experiment [4], under 0.1 µM.

The values above are taken from patent US12012417B2, “N-substituted tetrahydrothienopyridine derivatives and uses thereof” (NOVARTIS AG, priority 2018, dated 2024).
